Source: US20030129751A1, “Tissue-engineered organs” (priority 2001, published 2003)

System: neointestine
Test: GLP-2 treatment of rats bearing tissue-engineered small intestine: morphometry and SGLT1 expression
Format: in vivo, rat
Experimental: Neointestinal cysts were engineered by seeding biodegradable polymers with neonatal rat intestinal organoid units. The implantation was also performed with small intestine organoid units that had been labeled with GFP to distinguish and verify engineered tissue from host tissue (FIG. 36). Confirmation of GFP production was obtained by simultaneous in vitro culture of the organoid units. The cysts were matured and anastomosed to the native jejunum of syngenic adult recipients. Histology and surface area calculations were performed, as well as Northern blot and localization analysis of the Na+/glucose cotransporter (SGLT1). GLP-2 treatment augmented the absorptive surface area of engineered intestine […]. Animals were treated with [[…]]GLP-2 (twice daily, 1 μg/g body weight), a long-acting analogue of GLP-2, or vehicle alone (control) for 10 days. Rats were then sacrificed and tissues harvested for analysis. Histological parameters and surface area determinations were done using computer-based morphometry.

[1] = [Gly2]GLP-2 twice daily 1 μg/g body weight, 10 days, mean±S.D.
[2] = [Gly2]GLP-2 twice daily 1 μg/g body weight, 10 days, mean±S.D., p < 0.05

## [Gly2]GLP-2 (HGDGSFSDEMNTILDNLAARDFINWLIQTKITD; Glucagon-like peptide 2; UniProt P01275 146-178, looked up, variant A2G) [a long-acting analogue of GLP-2]
Northern blot, vs vehicle control
  SGLT1 mRNA expression in the neointestine: two-fold increase
[1]
  Crypt Width: 63 ± 6 microns
  Villus Width: 114 ± 32 microns
[2]
  Surface Area (mucosal amplification ratio): 7.3 ± 1.4
  Villus Height: 456 ± 23 microns
Localization analysis
  SGLT1 expression topography: unperturbed
Vs vehicle control, 10 days
  Expansion of absorptive surface area: 40%
